Laboratory results reported in US20260151398A1, “COMPOUNDS FOR REDUCING CHOLESTEROL AND TREATING LIVER AND KIDNEY DISEASE” (McMaster University, priority 2021, published 2026).
“Also recorded” adds a separate entry of the source.

Tests used:
Type in all cases: cell-based, human
[1] = system: ER Ca^2+ levels; test: ER Ca2+ in HuH7 cells (D1ER, Mag-Fluo-4, TG-induced efflux); conditions: TG 100 nM, CDN 100 μM, CF 200 μM, 24 h
Method: Intracellular Ca^2+ in Huh7 and HepG2 cells was measured using a high-affinity Ca^2+ indicator, Fura-2-AM (Thermofisher Scientific). ER Ca^2+ levels were assessed using the low-affinity Ca^2+ indicator, Mag-Fluo-4, and via transfection of cells with D1ER. The D1ER plasmid encodes an ER-resident calcium binding protein linked to a fluorescent protein and increases in fluorescence intensity upon Ca^2+ binding (7). For assessment using indicators, cells were plated in black clear-bottom 96-well plates to a confluence of 70-75% and treated with Ca^2+ modulating agents for 24 h (n=6). Cells were then washed and incubated with Fura-2-AM (2 μM) or Mag-Fluo-4 (2 μM) for 45 minutes at 37° C. in HBSS containing 20 mM HEPES and 2% pluronic acid v/v (Thermofisher Scientific). Fluorescence intensity of intracellular Fura-2-AM was measured at two distinct wavelengths (ex 340/em 515 and ex 380/em 515), following three consecutive washes, to assess bound and unbound states using a SpectraMax® GeminiEM fluorescent spectrophotometer (Molecular Devices, Sunnyvale, California, USA). Fluorescence intensity of Mag-Fluo-4 was quantified at a single wavelength (ex 495/em 515). […] Twenty-four h later, cells were treated with Ca^2+ modulating agents for an additional 24 h and quantified (ex 495/em 515) using a SpectraMax® GeminiEM fluorescent spectrophotometer.
Among the many intracellular effects of CF on the cell, its ability to increase intracellular Ca^2+ levels is well-studied (Echeverri, D., et al., 2010). […] ER Ca^2+ levels were then examined in cells transfected with D1ER; a genetically-encoded ER-resident fluorescence resonance energy transfer (FRET)-based […] chameleon Ca^2+ sensor, which increases in fluorescence intensity upon Ca^2+ binding (Palmer, A. E., et al., 2004). The low-affinity Ca^2+ indicator, Mag-Fluo-4, was also utilized for the direct assessment of ER Ca^2+ and increases in fluorescence intensity upon Ca^2+ binding (Diercks, B. P., et al., 2017; Lebeau, P., et al., 2021). […] ER Ca^2+ content was also assessed indirectly with the high affinity Ca^2+ dye, fura-2-AM (FIG. 6 B). […]

[2] = system: ER stress markers (GRP78, ATF4, pPERK, IRE1α, sXBP1, ATF6); test: ER stress / UPR readouts in hepatocytes
Method: Cells were washed in phosphate-buffered saline (PBS), lysed in 4× SDS-PAGE lysis buffer and separated on 7-10% polyacrylamide gels in denaturing conditions. Gels were transferred to nitrocellulose membranes using the BioRad mini trans-blot system, blocked in 5% skim milk in tris-buffered saline (TBS) for 1 h and incubated in primary antibody overnight for 16 h at 4° C. Membranes were then exposed to horse radish peroxidase conjugated secondary antibodies and visualized using EZ-ECL chemiluminescent reagent (Froggabio). Band intensities were quantified using ImageJ software ([…]) against membranes reprobed for housekeeping proteins.
Following treatment, live cells were incubated in complete DMEM containing 5 μM Thioflavin-T (ThT; Thermofisher Scientific) for 15 minutes. Cells were then fixed in 4% paraformaldehyde and mounted with permafluor. Fluorescent staining was visualized using the EVOS FL colour system at either 20 or 40× magnification.
RNA purification/isolation was performed using RNeasy mini kits (Qiagen) and normalized to 2 μg RNA using a NanoDrop® spectrophotometer. Samples were then reverse transcribed into cDNA using Superscript Vilo cDNA Synthesis kit (Thermofisher Scientific). Real-time PCR was executed with Fast SYBR Green (Thermo Fisher Scientific) using the ΔΔct method on the ViiA7 real-time PCR platform (Thermofisher Scientific).
Because ER Ca^2+ depletion induces a compensatory unfolded protein response (UPR), it was also postulated that CF may attenuate UPR marker expression by increasing ER Ca^2+ levels. […] Reactive oxygen species production, a process known to occur during conditions of ER stress, was also attenuated by CF (FIG. 9 H). […] While increasing the protein binding ability of chaperones, such as GRP78, CF also attenuates SREBP2-driven gene expression (FIG. 7 L).

[3] = system: GRP78 and SREBP2; test: Co-immunoprecipitation of GRP78 with SREBP2 in HuH7 cells; conditions: TG 100 nM, CDN 100 μM, CF 200 μM, 24 h
Method: Cells were grown in 10 cm dishes were resuspended in ice cold non-denaturing immunoprecipitation buffer containing 20 mM tris HCL, 137 mM NaCl, 1% NP-40, 2 mM EDTA and protease inhibitor (Roche). Total cell protein was normalized using a protein assay (BioRad) and 1 mg of protein from each sample was incubated with 2 μg of capture antibody targeted against GRP78 (Santa Cruz Biotechnology; SC-1050) and rotated on a platform for 24 h at 4° C. Following incubation, samples were exposed to 100 μl of Protein G magnetic Surebeads® (BioRad) for an additional 2 h on a rotating platform at 4° C. Beads conjugated to the anti-GRP78 antibody were subsequently isolated and the remaining sample was collected and labelled “input” for use as controls. The magnetic beads underwent 4 consecutive washes using the non-denaturing IP buffer and resuspended and boiled in 100 μl of 4× SDS-PAGE sample buffer.
To determine whether increasing ER Ca^2+ levels enhance GRP78 peptide binding capacity, HuH7 cells were treated with either CDN, which increases ER Ca^2+ levels, or TG which causes ER Ca^2+ depletion. Following treatment, the interaction taking place between GRP78 and SREBP2 was examined via immunoprecipitation of the former. By affecting ER Ca^2+ levels however, these agents also directly impact the expression and abundance of GRP78 compared to untreated cells. Therefore, assessment of the relative binding capacity GRP78 for SREBP2 between treatments required normalization of immunoprecipitations to equivalent GRP78 protein levels (FIG. 7 A).

| Structure (SMILES) | ER Ca^2+ levels [1] | TG-induced GRP78 expression ([2]; HuH7, with TG 100 nM) | interaction of GRP78 with pre-mature SREBP2 [3] | GRP78 expression ([2]; HuH7, TG 100 nM, CPA 10 μM) | thioflavin-T-stained misfolded protein aggregates and FLAG-sXBP1 expression ([2]; HuH7) | reactive oxygen species production ([2]; HuH7, TG 100 nM) | expression of pPERK, IRE1α, sXBP1, ATF4 and ATF6 ([2]; HuH7, immunoblotting and real-time PCR, listed as CF) | mRNA of ER stress markers GRP78 and ATF4 ([2]; PHH, CF 200 μM) |
| --- | --- | --- | --- | --- | --- | --- | --- | --- |
| Cc1ccc2cccc(NC(=O)c3ccc(OC(C)C)cc3)c2n1 [CDN] | increased ER Ca^2+ levels | blocked TG-induced expression | enhanced the ability of GRP78 to interact with and sequester pre-mature SREBP2 |  |  |  |  |  |
| C/C=C(/C)C(=O)O[C@H]1C(C)=C2[C@H]([C@@H]1OC(=O)CCCCCCC)[C@@](C)(OC(C)=O)C[C@H](OC(=O)CCC)[C@@]1(O)[C@H]2OC(=O)[C@@]1(C)O [TG, thapsigargin] | reduced ER Ca^2+ levels |  | lost its intrinsic ability to interact with pre-mature SREBP2 | increased the expression of GRP78 |  |  |  |  |
| Cn1c(=O)c2c(ncn2C)n(C)c1=O [caffeine, 1,3,7-Trimethylxanthine] | increased ER Ca^2+ levels |  | increases the SREBP2-binding capacity of GRP78 |  | blocked the accumulation of thioflavin-T-stained misfolded protein aggregates | attenuated | reduction in the expression of pPERK, IRE1α, sXBP1, ATF4 and ATF6; also recorded: protects against ER stress | reduction in mRNA transcript levels of ER stress markers |
